Laboratory results reported in ChEMBL document CHEMBL5154699 (Eur J Med Chem, 2022).

How the values were obtained:
[1] = target: Kappa-type opioid receptor (Cavia porcellus, UniProt P41144); assay: Displacement of [3H]-U69593 from KOR in guinea pig brain membranes measured by competitive radioligand receptor binding assay; type: cell membranes, Membrane
[2] = target: Sigma non-opioid intracellular receptor 1 (Cavia porcellus, UniProt Q60492); assay: Displacement of [3H]-(+)-pentazocine from sigma1 receptor in guinea pig brain membrane measured by competitive radioligand receptor binding assay; type: cell membranes
[3] = target: Delta-type opioid receptor (Rattus norvegicus, UniProt P33533); assay: Displacement of [3H]-DPDPE from DOR in rat brain membranes measured by competitive radioligand receptor binding assay; type: cell membranes, Membrane
[4] = target: T1, Sigma intracellular receptor 2 (Rattus norvegicus, UniProt Q5U3Y7); assay: Displacement of [3H]-di-o-tolylguanidine from sigma2 receptor in rat liver membrane measured by competitive radioligand receptor binding assay; type: cell membranes
T1 sequence (Q5U3Y7 whole entry): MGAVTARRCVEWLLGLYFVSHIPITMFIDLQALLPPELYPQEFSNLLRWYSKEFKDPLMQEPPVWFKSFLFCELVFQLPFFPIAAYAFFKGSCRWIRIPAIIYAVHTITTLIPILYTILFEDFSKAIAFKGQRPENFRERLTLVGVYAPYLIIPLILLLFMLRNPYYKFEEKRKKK

Mu-type opioid receptor = Mu-type opioid receptor (Cavia porcellus, UniProt P97266); assay: Displacement of [3H]-DAMGO from MOR in guinea pig brain membranes measured by competitive radioligand receptor binding assay; type: cell membranes, Membrane

SMILES	Ki [1]	Ki [2]	Ki [3]	Ki [4]	Ki (Mu-type opioid receptor)
O=C(Cc1ccc(Cl)c(Cl)c1)N1CCCCC1CN1CCCC1 (stereo not drawn)	0.00024 µM	–	–	–	–
O=C(Cc1ccc(Cl)c(Cl)c1)N1CC[C@H]2C[C@@H](N3CCCC3)[C@@H]1C2	0.007 µM	0.056 µM	0.542 µM	0.534 µM	–
O=C(Cc1ccc(Cl)c(Cl)c1)N1CCC2CC1[C@H](N1CCCC1)C2 (stereo partly drawn)	0.007 µM	–	–	–	–
CN(C)[C@@H]1C[C@@H]2CCN(C(=O)Cc3ccc(Cl)c(Cl)c3)[C@H]1C2	0.013 µM	0.292 µM	–	0.811 µM	> 1 µM
O=C(Cc1ccc(Cl)c(Cl)c1)N1CC[C@H]2C[C@@H]1[C@@H](N1CCCC1)C2	1.75 µM	0.01 µM	–	0.171 µM	–
O=C(Cc1ccc(Cl)c(Cl)c1)N1CC[C@@H]2CC[C@H](N3CCCC3)[C@H]1C2	–	–	–	0.487 µM	–
O=C(Cc1ccc(Cl)c(Cl)c1)N1CCN2CC[C@@H](N3CCCC3)C1C2 (stereo partly drawn)	0.073 µM	–	–	–	–
O=C(Cc1ccc(Cl)c(Cl)c1)N1CCC2CC1[C@@H](N1CCCC1)C2 (stereo partly drawn)	0.862 µM	–	–	–	–
O=C(Cc1ccc(Cl)c(Cl)c1)N1CC[C@H]2CC[C@@H](N3CCCC3)[C@@H]1C2	–	–	–	0.154 µM	–
CN(C)[C@H]1C[C@H]2CCN(C(=O)Cc3ccc(Cl)c(Cl)c3)[C@@H]1C2	0.531 µM	0.017 µM	–	0.213 µM	–
O=C(Cc1ccc(Cl)c(Cl)c1)N1CCN2CC[C@H](N3CCCC3)C1C2 (stereo partly drawn)	> 1 µM	–	–	–	–
COC(=O)N1CCN(C(=O)Cc2ccc(Cl)c(Cl)c2)[C@H](CN2CCCC2)C1	0.00046 µM	–	–	–	–
CN(C)[C@@H]1CCC2CCN(C(=O)Cc3ccc(Cl)c(Cl)c3)C1C2 (mixture of isomers)	–	–	–	0.608 µM	–
